From PubChem BioAssay (NCI)
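The compound was tested at five concentrations on cells cultured in 96-well plates, with a 48-hour exposure period. GI50 marks 50% less growth. TGI marks complete inhibition of growth.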

Key:
Assay in all cases: NCI tumour cell line growth inhibition, 48 h
SW-620 colon = tested on: SW-620 colon
SN12C renal = tested on: SN12C renal
HT29 colon = tested on: HT29 colon
SNB-75 CNS = tested on: SNB-75 CNS
UACC-257 melanoma = tested on: UACC-257 melanoma
HCT-15 colon = tested on: HCT-15 colon
SNB-19 CNS = tested on: SNB-19 CNS
LOX IMVI melanoma = tested on: LOX IMVI melanoma
SK-OV-3 ovarian = tested on: SK-OV-3 ovarian
A549 NSCLC = tested on: A549 NSCLC

FC(F)(F)c1cc(-c2nnc3n2N=C(N2CCCC2)CS3)cc(C(F)(F)F)c1
GI50 (SW-620 colon): > 50 µM
TGI (SW-620 colon): > 50 µM
GI50 (SN12C renal): > 50 µM
TGI (SN12C renal): > 50 µM
GI50 (HT29 colon): > 50 µM
TGI (HT29 colon): > 50 µM
GI50 (SNB-75 CNS): 7.12 µM
TGI (SNB-75 CNS): 24.4 µM
GI50 (UACC-257 melanoma): > 50 µM
TGI (UACC-257 melanoma): > 50 µM
GI50 (HCT-15 colon): > 50 µM
TGI (HCT-15 colon): > 50 µM
GI50 (SNB-19 CNS): 30.2 µM
TGI (SNB-19 CNS): > 50 µM
GI50 (LOX IMVI melanoma): > 50 µM
TGI (LOX IMVI melanoma): > 50 µM
GI50 (SK-OV-3 ovarian): 14.3 µM
TGI (SK-OV-3 ovarian): > 50 µM

NCCCOCC(=O)O
TGI (SW-620 colon): > 100 µM
TGI (SN12C renal): > 100 µM
TGI (HT29 colon): > 100 µM
TGI (A549 NSCLC): > 100 µM
TGI (SNB-75 CNS): > 100 µM
TGI (UACC-257 melanoma): > 100 µM
TGI (HCT-15 colon): > 100 µM
TGI (SNB-19 CNS): > 100 µM
TGI (SK-OV-3 ovarian): > 100 µM

CCCCCCCCCCCCCCN
TGI (SW-620 colon): > 100 µM
TGI (SN12C renal): > 100 µM
TGI (HT29 colon): > 100 µM
TGI (SNB-75 CNS): > 100 µM
TGI (UACC-257 melanoma): > 100 µM
TGI (HCT-15 colon): > 100 µM
TGI (LOX IMVI melanoma): > 100 µM
TGI (SK-OV-3 ovarian): > 100 µM

CCCCS(=O)CCC(N)C(=O)O (stereo not drawn)
TGI (SW-620 colon): > 100 µM
TGI (SN12C renal): > 100 µM
TGI (HT29 colon): > 100 µM
TGI (A549 NSCLC): > 100 µM
TGI (SNB-75 CNS): > 100 µM
TGI (UACC-257 melanoma): > 100 µM
TGI (HCT-15 colon): > 100 µM
TGI (SNB-19 CNS): > 100 µM
TGI (SK-OV-3 ovarian): > 100 µM

COc1ccc2c(c1)/C(=C\c1cccnc1)C(=O)N2
GI50 (SW-620 colon): 41 µM
TGI (SW-620 colon): > 100 µM
GI50 (SN12C renal): 7.38 µM
TGI (SN12C renal): 29.4 µM
GI50 (A549 NSCLC): 18.2 µM
TGI (A549 NSCLC): 56.7 µM
GI50 (SNB-75 CNS): 27.9 µM
TGI (SNB-75 CNS): 68.1 µM
GI50 (UACC-257 melanoma): 14.8 µM
TGI (UACC-257 melanoma): 31.8 µM
GI50 (HCT-15 colon): 14.4 µM
TGI (HCT-15 colon): 39.5 µM
GI50 (SNB-19 CNS): 16.2 µM
TGI (SNB-19 CNS): 51.6 µM
GI50 (LOX IMVI melanoma): 8.83 µM
TGI (LOX IMVI melanoma): 25.3 µM
GI50 (SK-OV-3 ovarian): 20.3 µM
TGI (SK-OV-3 ovarian): 46.5 µM

CC1CC#CCOC(=O)CCCC1=O (stereo not drawn)
TGI (SW-620 colon): > 100 µM
TGI (SN12C renal): > 100 µM
TGI (HT29 colon): > 100 µM
TGI (A549 NSCLC): > 100 µM
TGI (SNB-75 CNS): > 100 µM
TGI (SNB-19 CNS): > 100 µM
TGI (LOX IMVI melanoma): > 100 µM
TGI (SK-OV-3 ovarian): > 100 µM

COc1ccccc1/C=C1\CCC(CCN(C)C)(C2=CCCC2)C1=O (stereo not drawn)
TGI (SW-620 colon): 32.1 µM
TGI (SN12C renal): 50.3 µM
TGI (HT29 colon): 39.3 µM
TGI (A549 NSCLC): 64.4 µM
TGI (SNB-75 CNS): 54.7 µM
TGI (UACC-257 melanoma): 31 µM
TGI (HCT-15 colon): 61.8 µM
TGI (SNB-19 CNS): 31.1 µM
TGI (LOX IMVI melanoma): 31.3 µM

O=C(Nc1cccc([N+](=O)[O-])c1)C(=O)C(C(=O)c1ccccc1-c1ccccc1)C1OC(=O)c2ccccc21 (stereo not drawn)
TGI (SW-620 colon): 73.6 µM
TGI (HT29 colon): > 100 µM
TGI (A549 NSCLC): 82.7 µM
TGI (SNB-75 CNS): 64.8 µM
TGI (UACC-257 melanoma): 93.4 µM
TGI (LOX IMVI melanoma): 36.6 µM
TGI (SK-OV-3 ovarian): > 100 µM

COC[C@@H](N=CN1CCc2cc(OC)c(OC)cc2[C@@H]1C)C(C)(C)C
TGI (SW-620 colon): > 100 µM
TGI (SN12C renal): > 100 µM
TGI (HT29 colon): > 100 µM
TGI (A549 NSCLC): > 100 µM
TGI (SNB-75 CNS): > 100 µM
TGI (UACC-257 melanoma): > 100 µM
TGI (HCT-15 colon): > 100 µM
TGI (SNB-19 CNS): > 100 µM
TGI (SK-OV-3 ovarian): > 100 µM

O=[N+]([O-])c1ccc(S(=O)Cc2ccccc2)c([N+](=O)[O-])c1 (stereo not drawn)
GI50 (SW-620 colon): 1.33 µM
TGI (SW-620 colon): 2.65 µM
GI50 (SN12C renal): 11.6 µM
TGI (SN12C renal): 33.1 µM
GI50 (A549 NSCLC): 16.3 µM
TGI (A549 NSCLC): 36.3 µM
GI50 (SNB-75 CNS): 12 µM
TGI (SNB-75 CNS): 25.2 µM
GI50 (UACC-257 melanoma): 1.76 µM
TGI (UACC-257 melanoma): 3.96 µM
GI50 (HCT-15 colon): 1.85 µM
TGI (HCT-15 colon): 3.88 µM
GI50 (SNB-19 CNS): 14 µM
TGI (SNB-19 CNS): 27.6 µM
GI50 (LOX IMVI melanoma): 1.6 µM
TGI (LOX IMVI melanoma): 2.94 µM
GI50 (SK-OV-3 ovarian): 16.4 µM
TGI (SK-OV-3 ovarian): 30 µM
